# Measurements: the OPERA property sets (Mansouri et al. 2018)
# Details: not given
Structure (SMILES),boiling point,ready biodegradability,melting point,log10 vapour pressure (mmHg),log10 Henry constant (atm·m³/mol),log10 Koc (L/kg),log10 biodegradation half-life (days)
CCCCNS(=O)(=O)c1ccccc1,314 °C,not readily biodegradable,–,–,–,–,–
Clc1c(Cl)c(Cl)c(C(Cl)Cl)c(Cl)c1Cl,334 °C,–,120 °C,–,–,–,–
Cc1cc(O)ccc1Br,–,–,63.5 °C,–,–,–,–
CC(F)(F)F,-47.5 °C,–,-111 °C,3.98,–,–,–
CC(C)(C)CC(C)(C)Nc1ncnc(N(CCCCCCNC2CC(C)(C)NC(C)(C)C2)C2CC(C)(C)NC(C)(C)C2)n1,–,–,138 °C,–,–,–,–
ClCCCCBr,175 °C,–,–,–,–,–,–
O=C1C=CC(=O)C1,–,–,37 °C,–,–,–,–
CCCCSP(=O)(SCCCC)SCCCC,–,readily biodegradable,–,-5.28,-6.53,3.7,–
Cc1ccc([N+](=O)[O-])c(C)c1,247 °C,–,9 °C,-1.24,–,–,–
C#C/C=C\C,48.4 °C,–,–,–,–,–,–
CN1CCN(CCCN2c3ccccc3Sc3ccc(C(F)(F)F)cc32)CC1.Cl.Cl,–,–,240 °C,–,–,–,–
Cc1ccc(C)c2c1C(=O)c1ccccc1C2=O,–,–,140 °C,–,–,–,–
FC(Br)Br,64.9 °C,–,-78 °C,–,–,–,–
CCCCCCOC=O,156 °C,–,-62.6 °C,–,–,–,–
CC(C)CCCCCCCCCCCCCCC(=O)O,–,readily biodegradable,–,–,–,–,–
CN1C(=O)CN=C(c2ccccc2F)c2cc([N+](=O)[O-])ccc21,–,–,166 °C,–,–,–,–
Cc1ccccc1CN,206 °C,–,-30 °C,–,–,–,–
Cc1ccc(C(=O)C(C)CN2CCCCC2)cc1 (stereo not drawn),–,–,176 °C,–,–,–,–
Brc1ccccc1-c1ccccc1,297 °C,–,1.5 °C,–,–,–,–
CC(C)OC(=O)CCCCC(=O)OC(C)C,–,–,-1.1 °C,–,–,–,–
CCSCC[C@H](N)C(=O)O,–,–,195 °C,–,–,–,–
CCCCCCCCc1ccccc1Nc1ccccc1CCCCCCCC,–,not readily biodegradable,–,–,–,–,–
CCCCC(CC)C(=O)OCC(COC(=O)C(CC)CCCC)OC(=O)C(CC)CCCC (stereo not drawn),–,readily biodegradable,–,–,–,–,–
COc1ccc(C2C(=O)c3ccccc3C2=O)cc1,–,–,156 °C,–,–,–,–
CCc1cccc2ccccc12,259 °C,–,-13.9 °C,-1.6,-3.16,3.78,–

Structure (SMILES),boiling point,ready biodegradability,melting point,log10 vapour pressure (mmHg),log10 Henry constant (atm·m³/mol),log10 Koc (L/kg),log10 biodegradation half-life (days)
C[C@@H]1C[C@H]2[C@@H]3CCC4=CC(=O)C=C[C@]4(C)[C@@]3(F)[C@@H](O)C[C@]2(C)[C@@]1(O)C(=O)CO,–,–,248 °C,–,–,–,–
Oc1ccccc1F,152 °C,not readily biodegradable,16.1 °C,–,-5.49,–,–
CC1=C(c2ccccc2)C(=O)N(C(C)(C)c2cc(Cl)cc(Cl)c2)CO1,–,–,150 °C,–,–,–,–
CC(=O)O,118 °C,readily biodegradable,16.6 °C,1.2,-7,–,–
CCCCOC(=O)CCCC,186 °C,–,-92.8 °C,–,–,–,–
CCC(N)C(=O)O (stereo not drawn),–,–,304 °C,–,–,–,–
CC1CCc2ccccc2O1 (stereo not drawn),224 °C,–,–,–,–,–,–
CCCCCCNC(=O)C=Cc1ccc(O)c(O)c1,–,–,142 °C,–,–,–,–
Cc1ccc(N)cc1C,228 °C,readily biodegradable,51 °C,-1.55,-5.73,–,–
NS(=O)(=O)c1ccccc1[N+](=O)[O-],–,–,191 °C,–,–,–,–
O=C(Cl)c1ccccc1Cl,238 °C,–,-4 °C,–,–,–,–
C=Cc1ccccn1,160 °C,not readily biodegradable,–,0.444,–,–,–
CCOC(=O)c1cccc(OC)c1,260 °C,–,–,–,–,–,–
C[Si](F)(F)c1ccccc1,–,–,–,0.881,–,–,–
CCCCCCCC(=O)OCCC,226 °C,–,-46.2 °C,–,–,–,–
CC1(c2ccccc2)CCOCO1 (stereo not drawn),256 °C,–,37.5 °C,–,–,–,–
Cc1cccc(C(C)c2ccccc2)c1C (stereo not drawn),–,not readily biodegradable,–,–,–,–,–
Cc1cc(O)c(C(C)(C)C)cc1C,258 °C,–,46 °C,–,–,–,–
CCCCCCCCCCCCN(C)C,260 °C,readily biodegradable,22 °C,–,–,–,–
CN(C)c1ccc(C=Cc2ccccc2)cc1,–,–,150 °C,–,–,–,–
O=C(CCCN1CCC(n2c(=S)[nH]c3ccccc32)CC1)c1ccc(F)cc1,–,–,202 °C,–,–,–,–
Nc1ccccc1S,234 °C,–,26 °C,–,–,–,–
CC(Br)C(C)(Br)Br (stereo not drawn),206 °C,–,1.8 °C,–,–,–,–
Cc1cc(C)c(O)c(C(=O)CC2CC(=O)NC(=O)C2)c1,–,–,201 °C,–,–,–,–
FC(F)(F)C(=NOCC1OCCO1)c1ccc(Cl)cc1,–,–,–,-3.55,–,–,–

Structure (SMILES),boiling point,ready biodegradability,melting point,log10 vapour pressure (mmHg),log10 Henry constant (atm·m³/mol),log10 Koc (L/kg),log10 biodegradation half-life (days)
CC(=O)Oc1ccccc1C(=O)Oc1ccccc1,–,–,96 °C,–,–,–,–
CC(C)OC(=O)C(Cl)(Cl)Cl,175 °C,–,–,–,–,–,–
O=C(Nc1ccccc1)c1ccccc1I,–,–,137 °C,–,–,2.82,–
COc1cc(C=C2CCCC(=Cc3ccc(O)c(OC)c3)C2=O)ccc1O,–,–,178 °C,–,–,–,–
c1ccc2c(c1)CCCO2,–,–,215 °C,–,–,–,–
C=CCN=C=O,88 °C,–,–,–,–,–,–
c1cc2cccc3c4cccc5cccc(c(c1)c23)c54,–,not readily biodegradable,274 °C,-8.28,–,–,2.95
C/C=N/O,115 °C,–,45 °C,–,–,–,–
C1N2CN3CN1CN(C2)C3,–,readily biodegradable,–,-2.4,–,–,–
CCOC(=O)C(=O)CC(C)=O,214 °C,–,18 °C,–,–,–,–
Cc1c(Cl)c(=O)oc2cc(OP(=O)(OCCCl)OCCCl)ccc12,–,–,91 °C,–,–,–,–
O=Cc1ccc(O)c(Cl)c1,–,–,139 °C,–,–,–,–
CCCCC(=O)c1ccc(C)cc1,256 °C,–,-2 °C,–,–,–,–
CCN(CC)CCOC(=O)C(O)(c1ccccc1)c1ccccc1.Cl,–,–,178 °C,–,–,–,–
O=[N+]([O-])OCC(CO[N+](=O)[O-])O[N+](=O)[O-],250 °C,–,13.5 °C,-3.4,–,–,–
OCCc1ccc(O)cc1,–,–,90 °C,–,–,–,–
c1ccc2nc3ccc4ccccc4c3cc2c1,–,–,–,–,–,4.39,–
CC(C)(C)C(=O)CC(=O)C(F)(F)C(F)(F)C(F)(F)F,–,–,38 °C,–,–,–,–
NC(N)=O.O=P(O)(O)O,–,–,120 °C,–,–,–,–
CCCCCCOCCOCCO,260 °C,–,-40 °C,-2.93,–,–,–
FC(F)(F)C(Cl)(Cl)C(F)(F)Cl,72 °C,–,-4.3 °C,–,–,–,–
O=C(O)c1cc(F)c(F)c(F)c1F,–,–,86 °C,–,–,–,–
CN1C(C(=O)Nc2ccccn2)=C(O)c2ccccc2S1(=O)=O,–,–,199 °C,–,–,–,–
O=C(O)c1cc(C(=O)O)c(C(=O)O)cc1C(=O)O,–,–,276 °C,–,–,–,–
O=C(O)Cc1cccc(Cl)c1,–,–,78.8 °C,–,–,–,–

Structure (SMILES),boiling point,ready biodegradability,melting point,log10 vapour pressure (mmHg),log10 Henry constant (atm·m³/mol),log10 Koc (L/kg),log10 biodegradation half-life (days)
CC(=O)CCC(C)=O,194 °C,–,-5.5 °C,–,–,–,–
CCCCCCSCCCCCC,230 °C,–,–,–,–,–,–
Clc1c(Cl)c(Cl)c2nccnc2c1Cl,–,–,190 °C,–,–,–,–
O=C(Nc1ccc(Br)cc1)c1c(O)cccc1O,–,–,229 °C,–,–,–,–
CCOC(=O)C(Br)C(=O)OCC,–,–,-54 °C,–,–,–,–
CCCCCCCCCCCCOS(=O)(=O)c1ccccc1,–,readily biodegradable,–,–,–,–,–
COC(=O)c1ccco1,181 °C,–,–,–,–,–,–
CCN(CCO)c1ccc(/N=N/c2ccc([N+](=O)[O-])cc2Cl)cc1,–,–,133 °C,–,–,–,–
CC(Cl)(Cl)CCl,124 °C,–,–,–,–,–,–
O=S(=O)(Cl)c1cccc2ccccc12,–,–,68 °C,–,–,–,–
C=C1CCC2CC1C2(C)C (stereo not drawn),166 °C,–,-61.2 °C,0.467,–,–,–
CCCCOCCOC(=O)COc1cc(Cl)c(Cl)cc1Cl,–,–,–,-5.82,–,–,–
CCCCN=C=O,115 °C,–,–,1.25,–,–,–
Cc1ccc(S(=O)(=O)c2ccc(C)cc2)cc1,406 °C,–,159 °C,–,–,–,–
C=C(C)Cl,22.6 °C,–,-137 °C,2.91,–,–,–
Cc1ncc([N+](=O)[O-])n1CC(O)CCl (stereo not drawn),–,–,77.5 °C,–,–,–,–
CC(=O)OCC(=O)O,–,–,67.5 °C,–,–,–,–
C=C(Cl)c1ccccc1,199 °C,–,-23 °C,–,–,–,–
CCC1(C)OC(=O)NC1=O (stereo not drawn),–,–,46 °C,–,–,–,–
CCS(=O)(=O)Cl,174 °C,–,–,–,–,–,–
CC1CS1 (stereo not drawn),72.5 °C,–,-91 °C,–,–,–,–
Cc1cc(C)n(-c2ccccc2)n1,273 °C,–,–,–,–,–,–
c1cc(-c2ccncc2)ccn1,305 °C,–,111 °C,-4.25,–,–,–
CCCC(C)(COC(N)=O)COC(=O)NC(C)C (stereo not drawn),–,–,92 °C,–,–,–,–
O=C(O)c1cc(Cl)ccc1O,–,–,172 °C,–,–,–,–

Structure (SMILES),boiling point,ready biodegradability,melting point,log10 vapour pressure (mmHg),log10 Henry constant (atm·m³/mol),log10 Koc (L/kg),log10 biodegradation half-life (days)
c1ccc(-c2ccncc2)cc1,281 °C,–,77.5 °C,–,–,–,–
NC(=O)C#CC#CC#CCO,–,–,140 °C,–,–,–,–
COC(=O)Nc1cccc(C)c1,–,readily biodegradable,–,–,–,–,–
CCCCCCCCCCCCCCCCCCCCCCCCCCCCCCO,–,–,88 °C,–,–,–,–
CN(C)C(=O)Nc1cccc(C(F)(F)F)c1,–,–,164 °C,-6.03,–,1.9,–
CC(C)CCOc1ccc(NC(=S)Nc2ccc(OCCC(C)C)cc2)cc1,–,–,146 °C,–,–,–,–
CCOC(=O)CCN(SN(C)C(=O)Oc1cccc2c1OC(C)(C)C2)C(C)C,–,–,–,-6.7,–,–,–
CCCCCCCCCCCC(=O)OC(=O)CCCCCCCCCCC,–,–,41.8 °C,–,–,–,–
CC(=S)Nc1ccccc1,–,–,77.5 °C,–,–,–,–
O=C1C=CCCC1,170 °C,–,-53 °C,–,–,–,–
CC(C)NC(=N)NC(=N)Nc1ccc(Cl)cc1,–,–,129 °C,–,–,–,–
NNC(=O)c1ccc(Cl)cc1,–,–,164 °C,–,–,–,–
Cc1cc(N)c2ncccc2c1,–,–,73 °C,–,–,–,–
CN(C)CCCOc1nn(Cc2ccccc2)c2ccccc12.Cl,–,–,160 °C,–,–,–,–
C[Si](Cl)(c1ccccc1)c1ccccc1,295 °C,–,–,–,–,–,–
COc1cc2c(c(O)c1OC)[C@H](C)NCC2,–,–,160 °C,–,–,–,–
c1ccc2cc3c(ccc4cc5ccccc5cc43)cc2c1,–,–,257 °C,–,–,–,–
CCOC(=O)CC(SP(=O)(OC)OC)C(=O)OCC (stereo not drawn),–,–,–,-5.01,–,–,–
CC(=O)[C@@]1(O)CC[C@H]2[C@@H]3CCC4=CC(=O)CC[C@]4(C)[C@H]3CC[C@@]21C,–,–,222 °C,–,–,–,–
CCCCC[C@@H](O)CC,171 °C,–,-45 °C,-0.592,–,–,–
Cc1[nH]c(=O)n(C(C)C)c(=O)c1Br,–,–,158 °C,–,–,2.11,–
COc1cc(N)c2c(c1N)C(=O)c1ccccc1C2=O,–,–,242 °C,–,–,–,–
CCC(C)(O)C#CC(C)(O)CC (stereo not drawn),135 °C,–,–,–,–,–,–

# Same assay, conditions: fish
Structure (SMILES),log10 biotransformation half-life (days),log10 BCF
CC(C)C1CCC(C(C)C)CC1 (stereo not drawn),0.97,–
Cc1ccccc1CN,–,0.66
Cc1ccc(N)cc1C,-0.99,0.95
Clc1cc(Cl)c2cc(Cl)ccc2c1,–,4.43
C[n+]1ccc(-c2cc[n+](C)cc2)cc1,–,0.28
c1cc2cccc3c4cccc5cccc(c(c1)c23)c54,-0.06,–
c1ccc2nc3ccc4ccccc4c3cc2c1,–,2.02
CCOC(=O)CC(SP(=O)(OC)OC)C(=O)OCC (stereo not drawn),-1.04,0.05
